Reference: PubChem BioAssay AID330 (DTP/NCI, 2004)
“And” between values parts separate entries of the source, which are not always exact repeats. Equal values may be shown once. Inconclusive results and toxic doses are left out. Rule for the calls: active = survival T/C of 150% or more; inactive = T/C below 125% in these data.

System: P388 leukemia ip, CD2F1 mice, survival T/C
Test: NCI In Vivo Anticancer Drug Screen. Data for tumor model P388 Leukemia (intraperitoneal) in CD2F1 (CDF1) mice
Settings: endpoint: median survival time, higher = longer survival
Procedure, shortened: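 Mice carrying the transplanted tumor received test compound or vehicle. Survival was recorded in each group, and the value is the treated-group measurement divided by that of the vehicle-treated control group.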

[1] = dose: 50.0 mg/kg/injection, schedule: Q01DX005 (ip), vehicle: saline with Tween-80
[2] = dose: 100.0 mg/kg/injection, schedule: Q01DX005 (ip), vehicle: saline with Tween-80
[3] = dose: 200.0 mg/kg/injection, schedule: Q01DX005 (ip), vehicle: saline with Tween-80
[4] = dose: 50.0 mg/kg/injection, schedule: Q01DX009 (ip), vehicle: saline
[5] = dose: 100.0 mg/kg/injection, schedule: Q01DX009 (ip), vehicle: saline
[6] = dose: 200.0 mg/kg/injection, schedule: Q01DX009 (ip), vehicle: saline
[7] = dose: 25.0 mg/kg/injection, schedule: Q04DX003 (ip), vehicle: Klucel (hydroxypropylcellulose) (HPC)
[8] = dose: 50.0 mg/kg/injection, schedule: Q04DX003 (ip), vehicle: Klucel (hydroxypropylcellulose) (HPC)
[9] = dose: 100.0 mg/kg/injection, schedule: Q04DX003 (ip), vehicle: Klucel (hydroxypropylcellulose) (HPC)
[10] = dose: 12.5 mg/kg/injection, schedule: Q01DX009 (ip), vehicle: saline
[11] = dose: 25.0 mg/kg/injection, schedule: Q01DX009 (ip), vehicle: saline
[12] = dose: 50.0 mg/kg/injection, schedule: Q01DX005 (ip), vehicle: Klucel (hydroxypropylcellulose) (HPC)
[13] = dose: 100.0 mg/kg/injection, schedule: Q01DX005 (ip), vehicle: Klucel (hydroxypropylcellulose) (HPC)
[14] = dose: 1.56 mg/kg/injection, schedule: Q01DX009 (ip), vehicle: saline
[15] = dose: 3.12 mg/kg/injection, schedule: Q01DX009 (ip), vehicle: saline

Measured: T/C

CCC1(C)CC(=O)NC(=O)C1
inactive: dose: 2.5 mg/kg/injection, schedule: Q01DX009 (ip), vehicle: saline with Tween-80 95 % of control | dose: 5.0 mg/kg/injection, schedule: Q01DX009 (ip), vehicle: saline with Tween-80 95 % of control | dose: 10.0 mg/kg/injection, schedule: Q01DX009 (ip), vehicle: saline with Tween-80 86 % of control

Cc1c(/C=C/C(=O)O)no[n+]1[O-]
inactive: [1] 102 % of control | [2] 98 % of control | [3] 100 % of control

COc1cc2cnc(-c3ccccn3)c(O)c2cc1OC
inactive: [4] 100 % of control | [5] 90 % of control | [6] 94 % of control

COc1cc2c(c(OC)c1OC)-c1[nH]ncc1CC2
inactive: [7] 100 % of control | [8] 103 % of control | [9] 93 % of control and 94 % of control | dose: 400.0 mg/kg/injection, schedule: Q04DX003 (ip), vehicle: Klucel (hydroxypropylcellulose) (HPC) 93 % of control

O=C(O)C(=O)O.O=C([O-])C(=O)O.O=C([O-])C(=O)O.[Fe+3].[K+]
inactive: dose: 30.0 mg/kg/injection, schedule: Q01DX005 (ip), vehicle: saline 100 % of control | dose: 60.0 mg/kg/injection, schedule: Q01DX005 (ip), vehicle: saline 99 % of control

Cc1ccc(S(=O)(=O)c2c(O)c3ccccc3c3nc4ccccc4nc23)cc1
inactive: [10] 90 % of control | dose: 12.5 mg/kg/injection, schedule: Q01DX009 (ip), vehicle: suspension in saline 88 % of control | dose: 25.0 mg/kg/injection, schedule: Q01DX009 (ip), vehicle: suspension in saline 90 % of control | [4] 89 % of control | dose: 50.0 mg/kg/injection, schedule: Q01DX009 (ip), vehicle: suspension in saline 88 % of control | [6] 91 % of control

Nc1ccc(N=C2C=CC(=O)C=C2)c(N)c1
inactive: [10] 102 % of control and 90 % of control | [11] 103 % of control and 112 % of control | [4] 105 % of control | [5] 112 % of control

N#Cc1ncnc2nc[nH]c12
inactive: [12] 101 % of control | [13] 107 % of control

COc1cccc2c1C(=O)c1c(O)c3c(c(O)c1C2=O)CC(O)(C(C)=O)CC3OC1CC(NCC2(O)OCC(O)C(O)C2O)C(O)C(C)O1 (centres undefined)
inactive: dose: 3.13 mg/kg/injection, schedule: Q04DX003 (ip), vehicle: water 119 % of control | dose: 6.25 mg/kg/injection, schedule: Q04DX003 (ip), vehicle: water 117 % of control | dose: 12.5 mg/kg/injection, schedule: Q04DX003 (ip), vehicle: water 119 % of control | dose: 25.0 mg/kg/injection, schedule: Q04DX003 (ip), vehicle: water 118 % of control | dose: 200.0 mg/kg/injection, schedule: Q04DX003 (ip), vehicle: water 99 % of control

CCC[CH2][Sn]([CH2]CCC)([CH2]CCC)[CH2]CC[N+](C)(C)C
inactive: dose: 0.78 mg/kg/injection, schedule: Q01DX009 (ip), vehicle: saline 105 % of control | [14] 105 % of control | [15] 101 % of control

CCCCSP(Oc1ccccc1)SCCCC
inactive: [7] 100 % of control | [8] 108 % of control | [9] 109 % of control

CCCCOc1ccc(-c2cnc(-c3ccc(-c4ncc(-c5ccc(OCCCC)cc5)o4)cc3)o2)cc1
inactive: dose: 3.0 mg/kg/injection, schedule: Q01DX005 (ip), vehicle: saline with Tween-80 91 % of control | dose: 6.0 mg/kg/injection, schedule: Q01DX005 (ip), vehicle: saline with Tween-80 88 % of control | dose: 25.0 mg/kg/injection, schedule: Q01DX005 (ip), vehicle: saline with Tween-80 89 % of control | [1] 87 % of control and 94 % of control | [2] 99 % of control | [3] 108 % of control

CC1C(=O)C(C)C(c2ccccc2)NC1c1ccccc1 (centres undefined)
inactive: [4] 99 % of control | [5] 98 % of control | [6] 89 % of control

NC(=O)c1nsc(-c2ccc([N+](=O)[O-])cc2)c1N
inactive: [12] 101 % of control | [13] 96 % of control | dose: 200.0 mg/kg/injection, schedule: Q01DX005 (ip), vehicle: Klucel (hydroxypropylcellulose) (HPC) 92 % of control

Cc1cc(Cl)ccc1N1C(=O)[N+](C)(C)N=C1[O-]
inactive: dose: 100.0 mg/kg/injection, schedule: Q04DX003 (ip), vehicle: saline 103 % of control | dose: 200.0 mg/kg/injection, schedule: Q04DX003 (ip), vehicle: saline 103 % of control

CCCCCCCCCc1ccc(OCCOCCOCCOCCOCCOCCOCCOCCOCCOC(C)N2CCCC2=O)cc1 (centres undefined)
inactive: dose: 6.25 mg/kg/injection, schedule: Q01DX009 (ip), vehicle: saline with Tween-80 110 % of control | dose: 12.5 mg/kg/injection, schedule: Q01DX009 (ip), vehicle: saline with Tween-80 115 % of control | dose: 25.0 mg/kg/injection, schedule: Q01DX009 (ip), vehicle: saline with Tween-80 120 % of control

CCCC(=O)Nc1ncnc2c1ncn2C1OC2COP(=O)(O)OC2C1OC(=O)CCC (centres undefined)
inactive: dose: 3.13 mg/kg/injection, schedule: Q03HX012 (ip), vehicle: saline 114 % of control | dose: 6.25 mg/kg/injection, schedule: Q03HX012 (ip), vehicle: saline 112 % of control | dose: 12.5 mg/kg/injection, schedule: Q03HX012 (ip), vehicle: saline 112 % of control | [11] 96 % of control | dose: 25.0 mg/kg/injection, schedule: Q03HX012 (ip), vehicle: saline 112 % of control | [4] 96 % of control | dose: 50.0 mg/kg/injection, schedule: Q03HX012 (ip), vehicle: saline 116 % of control | [5] 96 % of control | dose: 100.0 mg/kg/injection, schedule: Q03HX012 (ip), vehicle: saline 108 % of control | [6] 104 % of control | dose: 400.0 mg/kg/injection, schedule: Q01DX009 (ip), vehicle: saline 109 % of control

c1ccc(Nc2ccncc2)cc1
inactive: [14] 95 % of control | [15] 95 % of control | dose: 6.25 mg/kg/injection, schedule: Q01DX009 (ip), vehicle: saline 100 % of control | [10] 100 % of control | dose: 25.0 mg/kg/injection, schedule: Q04DX003 (ip), vehicle: saline sonified 100 % of control | dose: 50.0 mg/kg/injection, schedule: Q04DX003 (ip), vehicle: saline sonified 90 % of control | dose: 100.0 mg/kg/injection, schedule: Q04DX003 (ip), vehicle: saline sonified 100 % of control

CCC[As](C)SC1OC(COC(C)=O)C(OC(C)=O)C(OC(C)=O)C1OC(C)=O (centres undefined)
inactive: dose: 50.0 mg/kg/injection, schedule: Q01DX009 (ip), vehicle: saline with Tween-80 110 % of control | dose: 100.0 mg/kg/injection, schedule: Q01DX009 (ip), vehicle: saline with Tween-80 110 % of control | dose: 200.0 mg/kg/injection, schedule: Q01DX009 (ip), vehicle: saline with Tween-80 110 % of control

C[N+]1(C)CCC(Cc2ccccc2)CC1
inactive: dose: 6.25 mg/kg/injection, schedule: Q01DX005 (ip), vehicle: saline 101 % of control | dose: 12.5 mg/kg/injection, schedule: Q01DX005 (ip), vehicle: saline 92 % of control

CC(C)(OC(=O)c1ccc([N+](=O)[O-])cc1)C(=O)O
inactive: dose: 50.0 mg/kg/injection, schedule: Q01DX009 (ip), vehicle: Klucel (hydroxypropylcellulose) (HPC) 99 % of control | dose: 100.0 mg/kg/injection, schedule: Q01DX009 (ip), vehicle: Klucel (hydroxypropylcellulose) (HPC) 98 % of control | dose: 200.0 mg/kg/injection, schedule: Q01DX009 (ip), vehicle: Klucel (hydroxypropylcellulose) (HPC) 98 % of control

CN=C(N)N/N=C(\C)c1ccc2sc3ccccc3c2c1
inactive: dose: 25.0 mg/kg/injection, schedule: Q04DX002 (ip), vehicle: saline with Tween-80 104 % of control | dose: 50.0 mg/kg/injection, schedule: Q04DX002 (ip), vehicle: saline with Tween-80 106 % of control | dose: 100.0 mg/kg/injection, schedule: Q04DX002 (ip), vehicle: saline with Tween-80 107 % of control

CN(C)C1CC2C=CC1C1C=CC21 (centres undefined)
inactive: dose: 3.13 mg/kg/injection, schedule: Q01DX009 (ip), vehicle: water 100 % of control | dose: 6.25 mg/kg/injection, schedule: Q01DX009 (ip), vehicle: water 99 % of control | dose: 12.5 mg/kg/injection, schedule: Q01DX009 (ip), vehicle: water 100 % of control | dose: 25.0 mg/kg/injection, schedule: Q01DX009 (ip), vehicle: water 99 % of control | dose: 50.0 mg/kg/injection, schedule: Q01DX009 (ip), vehicle: water 98 % of control
